Data reported in patent US20090156518A1, “STABLE PHARMACEUTICAL COMPOSITION COMPRISING BETA-LACTAM ANTIBIOTIC AND BUFFER” (priority 2006, published 2009).
Marks after values point to notes of the source that are not given here.

Assay: amounts of β-lactam antibiotic, β-lactamase inhibitor (C18 reverse-phase LC, UV-VIS) and aminoglycoside (HPLC-ELSD) in solution over time
Format: physicochemical

CC1(C)[C@H](C(=O)O)N2C(=O)C[C@H]2S1(=O)=O [Sulbactam sodium]
amount of component as percentage with respect to the amount at the initial time (Example 4: cefoperazone sodium 4 g, sulbactam sodium 0.5 g, gentamicin 80 mg, citrate pH 6.75, 200 mL water, room temperature, Time 0 h): 101.4%
amount of component as percentage with respect to the amount at the initial time (Example 4: cefoperazone sodium 4 g, sulbactam sodium 0.5 g, gentamicin 80 mg, citrate pH 6.75, 200 mL water, room temperature, Time 1 h): 101.4%
amount of component as percentage with respect to the amount at the initial time (Example 4: cefoperazone sodium 4 g, sulbactam sodium 0.5 g, gentamicin 80 mg, citrate pH 6.75, 200 mL water, room temperature, Time 2 h): 101.5%
amount of component as percentage with respect to the amount at the initial time (Example 4: cefoperazone sodium 4 g, sulbactam sodium 0.5 g, gentamicin 80 mg, citrate pH 6.75, 200 mL water, room temperature, Time 4 h): 109.7%
amount of component as percentage with respect to the amount at the initial time (Example 4: cefoperazone sodium 4 g, sulbactam sodium 0.5 g, gentamicin 80 mg, citrate pH 6.75, 200 mL water, room temperature, Time 6 h): 103.2%
amount of component as percentage with respect to the amount at the initial time (Example 5: freeze-dried cefoperazone sodium 4 g, sulbactam sodium 0.5 g, citrate pH 6.75, + amikacin sulfate 500 mg, 7 days 0° C., dissolved in 100 mL water, Time 0 h): 101.4%
amount of component as percentage with respect to the amount at the initial time (Example 5: freeze-dried cefoperazone sodium 4 g, sulbactam sodium 0.5 g, citrate pH 6.75, + amikacin sulfate 500 mg, 7 days 0° C., dissolved in 100 mL water, Time 1 h): 101.4%
amount of component as percentage with respect to the amount at the initial time (Example 5: freeze-dried cefoperazone sodium 4 g, sulbactam sodium 0.5 g, citrate pH 6.75, + amikacin sulfate 500 mg, 7 days 0° C., dissolved in 100 mL water, Time 2 h): 101.5%
amount of component as percentage with respect to the amount at the initial time (Example 5: freeze-dried cefoperazone sodium 4 g, sulbactam sodium 0.5 g, citrate pH 6.75, + amikacin sulfate 500 mg, 7 days 0° C., dissolved in 100 mL water, Time 4 h): 109.7%
amount of component as percentage with respect to the amount at the initial time (Example 5: freeze-dried cefoperazone sodium 4 g, sulbactam sodium 0.5 g, citrate pH 6.75, + amikacin sulfate 500 mg, 7 days 0° C., dissolved in 100 mL water, Time 6 h): 103.2%
amount of component as percentage with respect to the amount at the initial time (Example 6: freeze-dried cefoperazone sodium 4 g, sulbactam sodium 1 g, citrate pH 6.75, + etimicin sulfate 200 mg, 7 days 0° C., dissolved in 100 mL water, Time 0 h): 99.62%
amount of component as percentage with respect to the amount at the initial time (Example 6: freeze-dried cefoperazone sodium 4 g, sulbactam sodium 1 g, citrate pH 6.75, + etimicin sulfate 200 mg, 7 days 0° C., dissolved in 100 mL water, Time 1 h): 100.4%
amount of component as percentage with respect to the amount at the initial time (Example 6: freeze-dried cefoperazone sodium 4 g, sulbactam sodium 1 g, citrate pH 6.75, + etimicin sulfate 200 mg, 7 days 0° C., dissolved in 100 mL water, Time 2 h): 100.2%
amount of component as percentage with respect to the amount at the initial time (Example 6: freeze-dried cefoperazone sodium 4 g, sulbactam sodium 1 g, citrate pH 6.75, + etimicin sulfate 200 mg, 7 days 0° C., dissolved in 100 mL water, Time 4 h): 100.2%
amount of component as percentage with respect to the amount at the initial time (Example 7: ceftriaxone sodium 4 g, sulbactam sodium 1 g, gentamicin sulfate 80 mg, citrate pH 6.75, 200 mL water, room temperature (22° C.), Time 0 h): 96.84%
amount of component as percentage with respect to the amount at the initial time (Example 7: ceftriaxone sodium 4 g, sulbactam sodium 1 g, gentamicin sulfate 80 mg, citrate pH 6.75, 200 mL water, room temperature (22° C.), Time 1 h): 94.43%
amount of component as percentage with respect to the amount at the initial time (Example 7: ceftriaxone sodium 4 g, sulbactam sodium 1 g, gentamicin sulfate 80 mg, citrate pH 6.75, 200 mL water, room temperature (22° C.), Time 2 h): 93.35%
amount of component as percentage with respect to the amount at the initial time (Example 7: ceftriaxone sodium 4 g, sulbactam sodium 1 g, gentamicin sulfate 80 mg, citrate pH 6.75, 200 mL water, room temperature (22° C.), Time 4 h): 93.23%
amount of component as percentage with respect to the amount at the initial time (Example 7: ceftriaxone sodium 4 g, sulbactam sodium 1 g, gentamicin sulfate 80 mg, citrate pH 6.75, 200 mL water, room temperature (22° C.), Time 6 h): 92.13%
amount of component as percentage with respect to the amount at the initial time (Example 7: ceftriaxone sodium 4 g, sulbactam sodium 1 g, gentamicin sulfate 80 mg, citrate pH 6.75, 200 mL water, room temperature (22° C.), Time 8 h): 93.38%
amount of component as percentage with respect to the amount at the initial time (Example 10: mezlocillin sodium 2 g, sulbactam sodium 0.5 g, etimicin sulfate 200 mg, citrate pH 6.5, 200 mL water, room temperature, Time 0 h): 98.07%
amount of component as percentage with respect to the amount at the initial time (Example 10: mezlocillin sodium 2 g, sulbactam sodium 0.5 g, etimicin sulfate 200 mg, citrate pH 6.5, 200 mL water, room temperature, Time 1 h): 98.13%
amount of component as percentage with respect to the amount at the initial time (Example 10: mezlocillin sodium 2 g, sulbactam sodium 0.5 g, etimicin sulfate 200 mg, citrate pH 6.5, 200 mL water, room temperature, Time 2 h): 72.96%
amount of component as percentage with respect to the amount at the initial time (Example 10: mezlocillin sodium 2 g, sulbactam sodium 0.5 g, etimicin sulfate 200 mg, citrate pH 6.5, 200 mL water, room temperature, Time 4 h): 95.16%
amount of component as percentage with respect to the amount at the initial time (Example 10: mezlocillin sodium 2 g, sulbactam sodium 0.5 g, etimicin sulfate 200 mg, citrate pH 6.5, 200 mL water, room temperature, Time 6 h): 99.65%
amount of component as percentage with respect to the amount at the initial time (Example 10: mezlocillin sodium 2 g, sulbactam sodium 0.5 g, etimicin sulfate 200 mg, citrate pH 6.5, 200 mL water, room temperature, Time 8 h): 104.9%
amount of component as percentage with respect to the amount at the initial time (Example 11: freeze-dried mezlocillin sodium, sulbactam sodium, citrate pH 6.5, 7 days 0° C., in 100 mL 5% fructose + etimicin sulfate 200 mg, Time 0 h): 114.3%
amount of component as percentage with respect to the amount at the initial time (Example 11: freeze-dried mezlocillin sodium, sulbactam sodium, citrate pH 6.5, 7 days 0° C., in 100 mL 5% fructose + etimicin sulfate 200 mg, Time 1 h): 95.83%
amount of component as percentage with respect to the amount at the initial time (Example 11: freeze-dried mezlocillin sodium, sulbactam sodium, citrate pH 6.5, 7 days 0° C., in 100 mL 5% fructose + etimicin sulfate 200 mg, Time 2 h): 93.75%
amount of component as percentage with respect to the amount at the initial time (Example 11: freeze-dried mezlocillin sodium, sulbactam sodium, citrate pH 6.5, 7 days 0° C., in 100 mL 5% fructose + etimicin sulfate 200 mg, Time 4 h): 93.78%
amount of component as percentage with respect to the amount at the initial time (Example 11: freeze-dried mezlocillin sodium, sulbactam sodium, citrate pH 6.5, 7 days 0° C., in 100 mL 5% fructose + etimicin sulfate 200 mg, Time 6 h): 95.65%
amount of component as percentage with respect to the amount at the initial time (Example 11: freeze-dried mezlocillin sodium, sulbactam sodium, citrate pH 6.5, 7 days 0° C., in 100 mL 5% fructose + etimicin sulfate 200 mg, Time 8 h): 101.0%
amount of component as percentage with respect to the amount at the initial time (Example 14: freeze-dried cefoperazone sodium 4 g, sulbactam sodium 2 g, citrate pH 6.75, 7 days 0° C., in 100 mL water, 10 mL + gentamicin sulfate 16 mg, room temperature, Time 0 h): 92.44%
amount of component as percentage with respect to the amount at the initial time (Example 14: freeze-dried cefoperazone sodium 4 g, sulbactam sodium 2 g, citrate pH 6.75, 7 days 0° C., in 100 mL water, 10 mL + gentamicin sulfate 16 mg, room temperature, Time 1 h): 91.27%
amount of component as percentage with respect to the amount at the initial time (Example 14: freeze-dried cefoperazone sodium 4 g, sulbactam sodium 2 g, citrate pH 6.75, 7 days 0° C., in 100 mL water, 10 mL + gentamicin sulfate 16 mg, room temperature, Time 2 h): 90.78%
amount of component as percentage with respect to the amount at the initial time (Example 14: freeze-dried cefoperazone sodium 4 g, sulbactam sodium 2 g, citrate pH 6.75, 7 days 0° C., in 100 mL water, 10 mL + gentamicin sulfate 16 mg, room temperature, Time 4 h): 88.38* %
amount of component as percentage with respect to the amount at the initial time (Example 14: freeze-dried cefoperazone sodium 4 g, sulbactam sodium 2 g, citrate pH 6.75, 7 days 0° C., in 100 mL water, 10 mL + gentamicin sulfate 16 mg, room temperature, Time 6 h): 86.86* %
amount of component as percentage with respect to the amount at the initial time (Example 15: freeze-dried cefoperazone sodium 4 g, sulbactam sodium 4 g, citrate pH 6.75, 7 days 0° C., in 100 mL water, 10 mL + gentamicin sulfate 16 mg, room temperature, Time 0 h): 99.50%
amount of component as percentage with respect to the amount at the initial time (Example 15: freeze-dried cefoperazone sodium 4 g, sulbactam sodium 4 g, citrate pH 6.75, 7 days 0° C., in 100 mL water, 10 mL + gentamicin sulfate 16 mg, room temperature, Time 1 h): 96.28%
amount of component as percentage with respect to the amount at the initial time (Example 15: freeze-dried cefoperazone sodium 4 g, sulbactam sodium 4 g, citrate pH 6.75, 7 days 0° C., in 100 mL water, 10 mL + gentamicin sulfate 16 mg, room temperature, Time 2 h): 102.5%
amount of component as percentage with respect to the amount at the initial time (Example 15: freeze-dried cefoperazone sodium 4 g, sulbactam sodium 4 g, citrate pH 6.75, 7 days 0° C., in 100 mL water, 10 mL + gentamicin sulfate 16 mg, room temperature, Time 4 h): 95.78* %
amount of component as percentage with respect to the amount at the initial time (Example 15: freeze-dried cefoperazone sodium 4 g, sulbactam sodium 4 g, citrate pH 6.75, 7 days 0° C., in 100 mL water, 10 mL + gentamicin sulfate 16 mg, room temperature, Time 6 h): 70.74* %
amount of component as percentage with respect to the amount at the initial time (Example 17: freeze-dried cefoperazone sodium 4 g, sulbactam sodium 1 g, citrate pH 6.75, 7 days 0° C., in 100 mL water, 10 mL + amikacin sulfate 40 mg, room temperature, Time 0 h): 105.6%
amount of component as percentage with respect to the amount at the initial time (Example 17: freeze-dried cefoperazone sodium 4 g, sulbactam sodium 1 g, citrate pH 6.75, 7 days 0° C., in 100 mL water, 10 mL + amikacin sulfate 40 mg, room temperature, Time 1 h): 112.2%
amount of component as percentage with respect to the amount at the initial time (Example 17: freeze-dried cefoperazone sodium 4 g, sulbactam sodium 1 g, citrate pH 6.75, 7 days 0° C., in 100 mL water, 10 mL + amikacin sulfate 40 mg, room temperature, Time 2 h): 112.6%
amount of component as percentage with respect to the amount at the initial time (Example 17: freeze-dried cefoperazone sodium 4 g, sulbactam sodium 1 g, citrate pH 6.75, 7 days 0° C., in 100 mL water, 10 mL + amikacin sulfate 40 mg, room temperature, Time 4 h): 118.5%
amount of component as percentage with respect to the amount at the initial time (Example 17: freeze-dried cefoperazone sodium 4 g, sulbactam sodium 1 g, citrate pH 6.75, 7 days 0° C., in 100 mL water, 10 mL + amikacin sulfate 40 mg, room temperature, Time 6 h): 123.3%
amount of component as percentage with respect to the amount at the initial time (Example 17: freeze-dried cefoperazone sodium 4 g, sulbactam sodium 1 g, citrate pH 6.75, 7 days 0° C., in 100 mL water, 10 mL + amikacin sulfate 40 mg, room temperature, Time 8 h): 127.1%
amount of component as percentage with respect to the amount at the initial time (Example 19: ceftriaxone sodium 2 g, sulbactam sodium 2 g, gentamicin sulfate 160 mg, citrate pH 6.75, 200 mL water, room temperature, Time 0 h): 96.84%
amount of component as percentage with respect to the amount at the initial time (Example 19: ceftriaxone sodium 2 g, sulbactam sodium 2 g, gentamicin sulfate 160 mg, citrate pH 6.75, 200 mL water, room temperature, Time 1 h): 94.43%
amount of component as percentage with respect to the amount at the initial time (Example 19: ceftriaxone sodium 2 g, sulbactam sodium 2 g, gentamicin sulfate 160 mg, citrate pH 6.75, 200 mL water, room temperature, Time 2 h): 93.35%
amount of component as percentage with respect to the amount at the initial time (Example 19: ceftriaxone sodium 2 g, sulbactam sodium 2 g, gentamicin sulfate 160 mg, citrate pH 6.75, 200 mL water, room temperature, Time 4 h): 93.23%
amount of component as percentage with respect to the amount at the initial time (Example 19: ceftriaxone sodium 2 g, sulbactam sodium 2 g, gentamicin sulfate 160 mg, citrate pH 6.75, 200 mL water, room temperature, Time 6 h): 92.13%
amount of component as percentage with respect to the amount at the initial time (Example 19: ceftriaxone sodium 2 g, sulbactam sodium 2 g, gentamicin sulfate 160 mg, citrate pH 6.75, 200 mL water, room temperature, Time 8 h): 93.38%
